From BindingDB's records for doi:10.1021/acs.jmedchem.6b01885 (Indiana University School of Medicine, 2017)

Molecular target: Survival motor neuron protein (Homo sapiens, UniProt Q16637)
Assay: Stabilization of human SMN protein expressed in HEK293 cells expressing SMN2 promoter after 24 hrs by luciferase reporter gene assay

Survival motor neuron protein, sequence (Q16637 whole entry): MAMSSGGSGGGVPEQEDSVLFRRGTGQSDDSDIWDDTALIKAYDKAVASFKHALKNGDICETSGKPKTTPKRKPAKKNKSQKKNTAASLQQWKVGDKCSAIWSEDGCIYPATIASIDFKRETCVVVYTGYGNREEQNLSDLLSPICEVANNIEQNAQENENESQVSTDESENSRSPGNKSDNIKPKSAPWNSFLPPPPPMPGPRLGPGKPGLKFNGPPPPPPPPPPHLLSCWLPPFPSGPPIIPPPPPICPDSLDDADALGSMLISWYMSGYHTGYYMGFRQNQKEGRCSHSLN

Compound | EC50 [nM]
COc1ccccc1NC(=O)c1cc(C(C)C)on1 | 7300
CC(C)c1cc(C(=O)Nc2cccnc2)no1 [MLS000087329] | 9900
CC(C)c1nc(NC(=O)c2ccc(F)c(Cl)c2)cs1 | 1600
CC(C)c1cc(C(=O)Nc2nc3ccccc3[nH]2)no1 | 260
CC(C)c1cc(C(=O)Nc2ccccc2Cl)no1 | 6200
CC(C)Cc1cc(C(=O)Nc2ccc(F)c(Cl)c2)no1 | 1500
CC(C)c1cc(C(=O)N2CCc3ccccc32)no1 | 720
CCc1cc(C(=O)Nc2ccc(F)c(Cl)c2)no1 | 8800
O=C(Nc1ccc(F)c(Cl)c1)c1cc(Cc2ccccc2)on1 | 3560
CC(C)c1cc(NC(=O)c2ccc(F)c(Cl)c2)on1 | 5500
Cc1cccc(NC(=O)c2cc(C(C)C)on2)c1 | 1800
CC(C)c1cc(C(=O)Nc2nc3ccccc3n2C)no1 | 2600
CC(C)c1cc(C(=O)Nc2cccc(Cl)c2)no1 [MLS000087323] | 860
CC(C)c1cc(C(=O)Nc2ccc(Cl)cc2)no1 | 2800
CC(C)c1cc(C(=O)Nc2ccc(F)cc2)no1 | 1800
Cc1ccc(NC(=O)c2cc(C(C)C)on2)cc1 | 1400
COc1cccc(NC(=O)c2cc(C(C)C)on2)c1 | 3600
O=C(Nc1ncc(C2CCC2)s1)c1ccc(F)c(Cl)c1 | 500
CC(C)c1cc(C(=O)Nc2ccccn2)no1 | 360
CC(C)c1cc(C(=O)Nc2nccs2)no1 | 780
CC(C)c1cc(C(=O)Nc2nc3ccccc3s2)no1 | 170
Cc1c(C(=O)Nc2ccc(F)c(Cl)c2)noc1C(C)C | 500
CC(C)c1cc(C(=S)Nc2ccc(F)c(Cl)c2)no1 | 13900
CC(C)c1cc(C(=O)Nc2ccccc2)no1 | 280
Cc1ccccc1NC(=O)c1cc(C(C)C)on1 | 5400
CC(C)c1cc(C(=O)Nc2ccccc2F)no1 | 260
CC(C)c1cc(C(=O)Nc2cccc(F)c2)no1 | 340
CC(C)(C)c1cc(C(=O)Nc2ccc(F)c(Cl)c2)no1 | 1930
CC(C)c1cc(CNc2ccc(F)c(Cl)c2)no1 | 11200
CC(C)c1cc(NC(=O)c2ccc(F)c(Cl)c2)no1 | 9900
